“And” between values parts separate entries of the source, which are not always exact repeats. Equal entries are not always repeated. Toxic doses and inconclusive results are not listed. No stated cut-off is given here; in the data, active means T/C of 150% or more; inactive means T/C below 125%.
Test system: L1210 leukemia ip in BDF1 mice, survival T/C
Test: NCI In Vivo Anticancer Drug Screen. Data for tumor model L1210 Leukemia (intraperitoneal) in B6D2F1 (BDF1) mice
Conditions: endpoint: mean survival time, higher = longer survival
Summary of the method: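 In this screen, tumor-bearing mice given compound are compared to those given vehicle, and their survival values are reported as a treated-to-control quotient.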

[1] = dose: 100.0 mg/kg/injection, schedule: Q01DX009 (ip), vehicle: saline with Tween-80
[2] = dose: 100.0 mg/kg/injection, schedule: Q01DX001 (ip), vehicle: carboxymethylcellulose (CMC)
[3] = dose: 200.0 mg/kg/injection, schedule: Q01DX001 (ip), vehicle: carboxymethylcellulose (CMC)
[4] = dose: 100.0 mg/kg/injection, schedule: Q04DX003 (ip), vehicle: Klucel (hydroxypropylcellulose) (HPC)
[5] = dose: 200.0 mg/kg/injection, schedule: Q04DX003 (ip), vehicle: Klucel (hydroxypropylcellulose) (HPC)
[6] = dose: 400.0 mg/kg/injection, schedule: Q04DX003 (ip), vehicle: Klucel (hydroxypropylcellulose) (HPC)
[7] = dose: 100.0 mg/kg/injection, schedule: Q01DX001 (ip), vehicle: Klucel (hydroxypropylcellulose) (HPC)
[8] = dose: 200.0 mg/kg/injection, schedule: Q01DX001 (ip), vehicle: Klucel (hydroxypropylcellulose) (HPC)
[9] = dose: 50.0 mg/kg/injection, schedule: Q01DX001 (ip), vehicle: saline
[10] = dose: 100.0 mg/kg/injection, schedule: Q01DX001 (ip), vehicle: saline
[11] = dose: 200.0 mg/kg/injection, schedule: Q01DX001 (ip), vehicle: saline
[12] = dose: 100.0 mg/kg/injection, schedule: Q04DX002 (ip), vehicle: Klucel (hydroxypropylcellulose) (HPC)
[13] = dose: 400.0 mg/kg/injection, schedule: Q04DX002 (ip), vehicle: Klucel (hydroxypropylcellulose) (HPC)

Measured: T/C

CC1OC(C2COC(C)(C)O2)C2OCOC12 (configuration not stated)
inactive: dose: 100.0 mg/kg/injection, schedule: Q04DX002 (ip), vehicle: saline with Tween-80 100 % of control | dose: 200.0 mg/kg/injection, schedule: Q04DX002 (ip), vehicle: saline with Tween-80 100 % of control | dose: 400.0 mg/kg/injection, schedule: Q04DX002 (ip), vehicle: saline with Tween-80 100 % of control

Cc1ccc(N=Nc2ccc(C)cc2NC(=O)Nc2cccc(F)c2)cc1
inactive: [1] 90 % of control | dose: 200.0 mg/kg/injection, schedule: Q01DX009 (ip), vehicle: saline with Tween-80 90 % of control | dose: 400.0 mg/kg/injection, schedule: Q01DX009 (ip), vehicle: saline with Tween-80 98 % of control

CCCOC(=O)N(CC)C(=NCC)c1ccc(NC(=O)c2ccc(C(=O)Nc3ccc(C(=NCC)N(CC)C(=O)OCCC)cc3)cc2)cc1
inactive: dose: 2.5 mg/kg/injection, schedule: Q01DX015 (ip), vehicle: methylcellulose (MC) 95 % of control | dose: 5.0 mg/kg/injection, schedule: Q01DX015 (ip), vehicle: methylcellulose (MC) 101 % of control | dose: 10.0 mg/kg/injection, schedule: Q01DX015 (ip), vehicle: methylcellulose (MC) 101 % of control | dose: 20.0 mg/kg/injection, schedule: Q01DX015 (ip), vehicle: methylcellulose (MC) 109 % of control | dose: 37.5 mg/kg/injection, schedule: Q01DX015 (ip), vehicle: methylcellulose (MC) 112 % of control | dose: 75.0 mg/kg/injection, schedule: Q01DX015 (ip), vehicle: methylcellulose (MC) 90 % of control | dose: 150.0 mg/kg/injection, schedule: Q01DX015 (ip), vehicle: methylcellulose (MC) 92 % of control | dose: 300.0 mg/kg/injection, schedule: Q01DX015 (ip), vehicle: methylcellulose (MC) 93 % of control

Nc1ccc(Cl)cc1
inactive: [2] 98 % of control | [3] 101 % of control | dose: 400.0 mg/kg/injection, schedule: Q01DX001 (ip), vehicle: carboxymethylcellulose (CMC) 110 % of control

Cc1ccc(Cl)cc1NC(=O)C(c1ccccc1)c1ccccc1
inactive: dose: 100.0 mg/kg/injection, schedule: Q01DX009 (ip), vehicle: Klucel (hydroxypropylcellulose) (HPC) 95 % of control | [4] 90 % of control | dose: 200.0 mg/kg/injection, schedule: Q01DX009 (ip), vehicle: Klucel (hydroxypropylcellulose) (HPC) 94 % of control | [5] 96 % of control | dose: 400.0 mg/kg/injection, schedule: Q01DX009 (ip), vehicle: Klucel (hydroxypropylcellulose) (HPC) 95 % of control | [6] 88 % of control

CC[NH-].CC[NH-].[I][Pt+2][I]
inactive: dose: 12.5 mg/kg/injection, schedule: Q04DX003 (ip), vehicle: saline 106 % of control | dose: 25.0 mg/kg/injection, schedule: Q01DX009 (ip), vehicle: saline 109 % of control | dose: 25.0 mg/kg/injection, schedule: Q04DX003 (ip), vehicle: saline 101 % of control | dose: 50.0 mg/kg/injection, schedule: Q01DX009 (ip), vehicle: saline 105 % of control | dose: 50.0 mg/kg/injection, schedule: Q04DX003 (ip), vehicle: saline 101 % of control | dose: 100.0 mg/kg/injection, schedule: Q04DX003 (ip), vehicle: saline 110 % of control

Cn1cc(/C=C/C(N)=O)c2nccnc21
inactive: dose: 1.56 mg/kg/injection, schedule: Q01DX009 (ip), vehicle: water 94 % of control | dose: 3.12 mg/kg/injection, schedule: Q01DX009 (ip), vehicle: water 92 % of control | dose: 6.25 mg/kg/injection, schedule: Q01DX009 (ip), vehicle: water 107 % of control | dose: 12.5 mg/kg/injection, schedule: Q01DX009 (ip), vehicle: water 103 % of control | dose: 25.0 mg/kg/injection, schedule: Q01DX009 (ip), vehicle: water 100 % of control and 110 % of control

C/C(=N\N=C(/C)c1ccc2ccccc2c1)c1ccc2ccccc2c1
inactive: dose: 100.0 mg/kg/injection, schedule: Q04DX003 (ip), vehicle: saline with Tween-80 94 % of control | dose: 200.0 mg/kg/injection, schedule: Q04DX003 (ip), vehicle: saline with Tween-80 91 % of control

CC(=O)Nc1[nH]ncc1C(N)=O
inactive: dose: 50.0 mg/kg/injection, schedule: Q01DX001 (ip), vehicle: Klucel (hydroxypropylcellulose) (HPC) 100 % of control | [7] 100 % of control | [8] 98 % of control

CC1=CC(=O)NP(=O)(OC2CCCCC2)N1 (configuration not stated)
inactive: dose: 100.0 mg/kg/injection, schedule: Q01DX005 (ip), vehicle: sodium bicarbonate 91 % of control

O=S(=O)(O)c1ccc(-c2nc(-c3ccccc3)c(-c3ccccc3)[nH]2)cc1
inactive: dose: 100.0 mg/kg/injection, schedule: Q01DX009 (ip), vehicle: saline 102 % of control | dose: 200.0 mg/kg/injection, schedule: Q01DX009 (ip), vehicle: saline 102 % of control | dose: 400.0 mg/kg/injection, schedule: Q01DX009 (ip), vehicle: saline 101 % of control

CN(C)N=Nc1ccc(CCCC(=O)NN)cc1
inactive: dose: 18.0 mg/kg/injection, schedule: Q01DX009 (ip), vehicle: other 103 % of control | dose: 22.0 mg/kg/injection, schedule: Q01DX Z (ip), vehicle: carboxymethylcellulose (CMC) 114 % of control | dose: 28.0 mg/kg/injection, schedule: Q01DX009 (ip), vehicle: other 111 % of control | [2] 111 % of control | [3] 113 % of control

NC(N)=N/N=C/c1ccc(Cl)cc1Cl
inactive: dose: 30.0 mg/kg/injection, schedule: Q01DX010 (oral), vehicle: saline 102 % of control | dose: 44.0 mg/kg/injection, schedule: Q01DX010 (oral), vehicle: saline 100 % of control | [9] 100 % of control | dose: 63.0 mg/kg/injection, schedule: Q01DX Z (ip), vehicle: saline 101 % of control | dose: 66.0 mg/kg/injection, schedule: Q01DX010 (oral), vehicle: saline 104 % of control | dose: 99.0 mg/kg/injection, schedule: Q01DX010 (oral), vehicle: saline 98 % of control | [10] 106 % of control | [11] 108 % of control

NC(=S)N/N=C/c1cccc(/C=N/NC(N)=S)c1
inactive: [9] 98 % of control | [10] 93 % of control | [11] 93 % of control | dose: 400.0 mg/kg/injection, schedule: Q01DX001 (ip), vehicle: saline 93 % of control

O=C1NC(=O)C(c2ccccc2Cl)N1 (configuration not stated)
inactive: [7] 109 % of control | [4] 102 % of control | [8] 118 % of control | [5] 100 % of control | dose: 400.0 mg/kg/injection, schedule: Q01DX001 (ip), vehicle: Klucel (hydroxypropylcellulose) (HPC) 103 % of control | [6] 98 % of control

O=S1(=O)CCC(N(/N=C/c2c[nH]c3ccccc23)c2ccccc2)C1 (configuration not stated)
inactive: [12] 103 % of control | dose: 200.0 mg/kg/injection, schedule: Q04DX002 (ip), vehicle: Klucel (hydroxypropylcellulose) (HPC) 110 % of control | [13] 100 % of control

CCCCCCCCCC(C)CCCCCCC (configuration not stated)
inactive: dose: 100.0 mg/kg/injection, schedule: Q01DX001 (ip), vehicle: saline with Tween-80 103 % of control | dose: 200.0 mg/kg/injection, schedule: Q01DX001 (ip), vehicle: saline with Tween-80 97 % of control | dose: 400.0 mg/kg/injection, schedule: Q01DX001 (ip), vehicle: saline with Tween-80 100 % of control

O=C=Nc1cccc2c(N=C=O)cccc12
inactive: [1] 91 % of control

CCOC(=O)C1C=NC([N+](=O)[O-])=C1Br (configuration not stated)
inactive: dose: 25.0 mg/kg/injection, schedule: Q04DX002 (ip), vehicle: Klucel (hydroxypropylcellulose) (HPC) 102 % of control | dose: 50.0 mg/kg/injection, schedule: Q04DX002 (ip), vehicle: Klucel (hydroxypropylcellulose) (HPC) 109 % of control | [12] 103 % of control and 105 % of control | [13] 93 % of control

From PubChem BioAssay AID248 (DTP/NCI, 2004)
